Common to all, as to type: cell-based
In experiment [1] the target is T1, aromatase (wild-type CYP19A1) (Homo sapiens, UniProt P11511).
T1 construct: expressed in transfected cells; host or cells: HEK 293-derived 3xERE-luc clone #4 (co-transfected with ESR1) or clone #1 (stably expressing wild-type ESR1)
T1 sequence (P11511 1-503): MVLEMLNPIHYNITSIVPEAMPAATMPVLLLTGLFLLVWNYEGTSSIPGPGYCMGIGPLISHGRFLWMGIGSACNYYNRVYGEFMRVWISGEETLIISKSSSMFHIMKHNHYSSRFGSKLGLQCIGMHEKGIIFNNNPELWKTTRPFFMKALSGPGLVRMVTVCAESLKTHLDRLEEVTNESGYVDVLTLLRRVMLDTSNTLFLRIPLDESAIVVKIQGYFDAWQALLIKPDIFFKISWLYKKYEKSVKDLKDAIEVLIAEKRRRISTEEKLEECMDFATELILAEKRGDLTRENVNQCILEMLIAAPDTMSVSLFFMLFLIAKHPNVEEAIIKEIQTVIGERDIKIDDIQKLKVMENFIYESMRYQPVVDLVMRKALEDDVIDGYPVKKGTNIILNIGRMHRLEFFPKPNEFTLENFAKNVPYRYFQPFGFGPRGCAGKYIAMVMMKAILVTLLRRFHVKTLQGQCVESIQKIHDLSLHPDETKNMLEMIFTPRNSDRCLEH
In words: Aromatase reporter assay, 3×ERE-luc clone #4 cells transfected with expression constructs of estrogen receptor and aromatase. The conditions noted are these: 24 hours; for testosterone-induced luciferase reporter activity in the presence of aromatase inhibitor: clone #4, testosterone with or without inhibitor. The method, then:
A serial dilution of testosterone was added to the cells for 24 hours. The luciferase reporter activity was measured.
The transfected cells were treated with testosterone in the presence or absence of aromatase inhibitors, anastrozole and letrozole, for 24 hours (FIG. 31).
On the technique in general: In a reporter assay the amount or activity of a reporter protein is the signal.

In experiment [2] the target is T2, R435C mutant of aromatase (CYP19A1) (Homo sapiens, UniProt P11511, R435C).
T2 construct: expressed in transfected cells; host or cells: HEK 293-derived reporter cells (clone #4 with ESR1 co-transfected; clone #1 stably expressing ESR1)
T2 sequence (P11511 1-503 R435C): T1 sequence (P11511 1-503) with R435C
In words: Aromatase reporter assay with R435C mutant of CYP19A1. How it is done:
(§1) The transfected cells were treated with a serial dilution of testosterone. The luciferase reporter activity was measured 24 hours post-transfection.
R435C corresponds to a missense mutation of CYP19A1, which changed arginine (R) into cysteine (C) at amino acid position of 435. In order to functionally characterize this mutation, PCR-mediated overlapping extension was employed to construct linear expression cassette of aromatase carrying this mutation. We first transfected the linear expression cassette of either wild-type aromatase or mutant aromatase DNA into the reporter cells followed by treatment with testosterone and its inhibitors using “all-in-one” method. The luciferase reporter activity was measured 24 hours post-transfection.

In experiment [3] the target is T1, aromatase (wild-type CYP19A1). Kind of experiment: Aromatase reporter assay, clone #1 cells (stable 3×ERE-Luc and wild-type ESR1) transfected with linear expression cassette of wild-type CYP19A1. The method, then:
The luciferase reporter activity was measured 24 hours post-transfection.

Experiment [4] concerns the target T3, R192H mutant of aromatase (CYP19A1) (Homo sapiens, UniProt P11511, R192H).
T3 construct: expressed in transfected cells; host or cells: HEK 293-derived reporter cells (clone #4 with ESR1 co-transfected; clone #1 stably expressing ESR1)
T3 sequence (P11511 1-503 R192H): T1 sequence (P11511 1-503) with R192H
In words: Aromatase reporter assay with R192H mutant of CYP19A1. How it is done: as §1
R192H corresponds to a missense mutation of CYP19A1, which changed arginine (R) into histidine (H) at amino acid position of 192. In order to functionally characterize this mutation, PCR-mediated overlapping extension was employed to construct linear expression cassette of aromatase carrying this mutation. We first transfected the linear expression cassette of either wild-type aromatase or mutant aromatase DNA into the reporter cells followed by treatment with testosterone and its inhibitors using “all-in-one” method. The luciferase reporter activity was measured 24 hours post-transfection.
We used the formula as illustrated in the above-mentioned example to calculate the activity of aromatase.

SMILES strings stand for the structures. Positions count from the first letter of the chain named.

For the molecule `CC(C)(C#N)c1cc(Cn2cncn2)cc(C(C)(C)C#N)c1` [anastrozole], the “testosterone-induced luciferase reporter activity in the presence of aromatase inhibitor” value in experiment [1] is recorded as “reduced”.

Regarding `C[C@]12CC[C@H]3[C@@H](CCC4=CC(=O)CC[C@@]43C)[C@@H]1CC[C@@H]2O` [testosterone], the “luciferase activity upon treatment of testosterone” value is “dose dependent activation of luciferase activity was observed” in experiment [1] (clone #4, estrogen receptor and aromatase constructs, serial dilution of testosterone); “no increase in luciferase activity was observed” in experiment [2] (clone #1, linear expression cassette of R435C, all-in-one method). In experiment [2] (clone #4, expression constructs of estrogen receptor and R435C aromatase), the “induction of luciferase reporter activity upon testosterone exposure” value was “no induction of luciferase reporter activity”. The “luciferase reporter activity upon addition of testosterone” value in experiment [3] (clone #1, 25 ng or 50 ng aromatase linear DNA, testosterone for 6 hours) is given as “responded to testosterone in a dose-dependent manner”. Further, the “reporter signal at 1 pM of testosterone” value in experiment [3] (clone #1, 50 ng linear cassette, testosterone for 24 hours, 1 pM) is “robust reporter signal was detected”. In addition, in experiment [4] (clone #1, linear expression cassette of R192H, all-in-one method), the “luciferase activity upon treatment of testosterone, compared to wild type” value is given as “reduced luciferase activity was observed”. Moreover, the “luciferase reporter activity upon testosterone, compared to wild type” value in experiment [4] (clone #4, expression constructs of estrogen receptor and R192H aromatase, serial dilution of testosterone) is given as “reduced luciferase reporter activity”.

Turning to `N#Cc1ccc(C(c2ccc(C#N)cc2)n2cncn2)cc1` [letrozole], the “testosterone-induced luciferase reporter activity in the presence of aromatase inhibitor” value in experiment [1] is given as “reduced”.

The values are drawn from US20180217131A1, “Novel Cell Based Assay” (Medical Diagnostic Laboratories, LLC, priority 2017, published 2018).
